Laboratory results taken from patent US9943540B2, “Pharmaceutical formulation for the treatment of osteoarthritis containing clodronic acid and hyaluronic acid” (ABIOGEN PHARMA S.P.A., priority 2005, dated 2018).
“Also recorded” adds a separate entry of the source.

Experiments:
gonarthritis [1] = assay: Preliminary clinical trial of intra-articular infiltration, responders by Womac 20 and Womac 50; assay type: in vivo, patients; details: for Womac 20 (responders, 20% improvement in the symptoms) / Womac 50 (responders, 50% improvement in the symptoms): patients with gonarthritis, % of patients
Procedure: Preliminary clinical trials with the formulations according to the invention were based on the measurement of Womac 20 and Womac 50, ie. a 20% and 50% improvement in the symptoms to establish the responders to the treatment (Ann Rheum Dis. 2005). Recently, to assess the effectiveness of intra-articular clodronic acid, 1 mg of clodronic acid is administered in patients with gonarthritis obtaining an improvement in symptoms which, when evaluated with Womac 50, related to 32% of the patients. 15 patients suffering from gonarthritis received, according to the invention, an infiltration of 2 ml of solution constituted by 20 mg of hyaluronic acid (Hyalgan) together with 1 mg of clodronic acid once a week for 3 weeks. At the end of the infiltration cycle, as reassumed in the following table, 58% of the patients were responders according to Womac 20, and 37% were responders according to Womac 50. […] The final result of 3 weekly infiltrations of the combination of the two drugs was also better than the cycle with 5 weekly infiltrations of hyaluronic acid (Womac 20:51% and Womac 50:30%) or clodronic acid (Womac 20:54% and Womac 50:32%).

[2] = test system: damaging effects on the joint structures by Freund's adjuvant; assay: Study on rats: damage to joint structures by Freund's adjuvant; assay type: in vivo
gonarthritis [3] = assay: Clinical trial of intra-articular sodium clodronate in evident gonarthritis; assay type: in vivo, patients
Source text: (§1) The low pH used was dictated by stability problems, +which made less acid values of the solutions unacceptable.

[4] = test system: gonalgia and gonarthrosis; assay: Multicenter clinical study of intra-articular clodronate; assay type: in vivo, patients; details: 2 mg once a week over 4 consecutive weeks
Source text: as §1

[5] = test system: synovitis secondary to knee osteoarthritis; details: patients with synovitis secondary to knee osteoarthritis; cited from earlier work
[6] = 2 ml intra-articular infiltration once a week for 3 weeks
[7] = 2 ml intra-articular infiltration once a week for 5 weeks

Molecule	improvement in symptoms evaluated with Womac 50 (gonarthritis [1]; 1 mg clodronic acid intra-articular in patients with gonarthritis, regimen not stated, % of the patients) [%]	Womac 20 (responders, 20% improvement in the symptoms) (gonarthritis [1]; [6]) [%]	Womac 50 (responders, 50% improvement in the symptoms) (gonarthritis [1]; [6]) [%]	Womac 20 (responders, 20% improvement in the symptoms) (gonarthritis [1]; [7]) [%]	Womac 50 (responders, 50% improvement in the symptoms) (gonarthritis [1]; [7]) [%]	inhibition of damaging effects on the joint structures by Freund's adjuvant [2]	attenuation of pain and recovery of joint movement (gonarthritis [3]; after 5 intra-articular injections of 2 mg)	adverse events: pain response at the time of the injection (gonarthritis [3]; clodronate alone intra-articularly, acidic solution, observed in the trials of b9 and b10)	response to intra-articular administration [4]	patient's symptomatology [5]
O=P(O)(O)C(Cl)(Cl)P(=O)(O)O [Clodronic acid, clodronic acid]	32	43	27	54	32					
O=P(O)(O)C(Cl)(Cl)P(=O)(O)O [sodium clodronate]						able to inhibit damaging effects on the joint structures	interesting results were observed	some adverse events were also observed; also recorded: normally occurs	best responses	significant improvement
sodium hyaluronate		41	24	51	30					
